# Test results published in patent US20010047018A1 (published 2001).
row,melting point,SMILES
1,84 to 86 °C,CC(=O)NC[C@H]1CN(c2ccc3c(c2)CS(=O)(=O)N3C)C(=O)O1
2,124 to 126 °C (dec.),CC(=O)NC[C@H]1CN(c2ccc3c(c2)CS(=O)(=O)N3CC#N)C(=O)O1
3,84 to 87 °C (dec.),CC(=O)NC[C@H]1CN(c2ccc3c(c2)CS(=O)(=O)N3CCF)C(=O)O1
4,90 to 93 °C (dec.),CC(=S)NC[C@H]1CN(c2ccc3c(c2)CS(=O)(=O)N3CCF)C(=O)O1
